From US20080280879A1, “SUBSTITUTED HETEROCYCLIC DERIVATIVES AND THEIR PHARMACEUTICAL USE AND COMPOSITIONS” (priority 2007, published 2008)
Values after ≈ are worked out from the molar mass of the structure shown.

Key:
Type in all cases: cell-based, Staphylococcus aureus
[1] = system: Staph aureus 1095 MRSA; assay: MIC, microtiter broth dilution (CLSI M7-A7), Assay 1, Table 12 column A, no serum; details: Assay 1, no serum; for MIC: Staphylococcus aureus, MRSA
Method: (§1) The assays described herein include a panel of bacterial isolates of Staphylococcus aureus. Assay 1 comprises the strains noted in Columns A through E, and Assay 2 comprises the strains noted in Columns F through H. The assays are performed in microtiter trays according to Methods for Dilution Antimicrobial Susceptibility Tests for Bacteria that Grow Aerobically; Approved Standard-7th edition (M7-A7) and interpreted according to the Performance Standards for Antimicrobial Susceptibility Testing; 16th Informational Supplement (M100-S16) published by Clinical Laboratory Standards Institute (CLSI). The antibacterial activity is presented in the form of a minimum inhibitory concentration (MIC) value in μg/ml format. The MIC value represents the lowest concentration of drug measured which prevented macroscopically visible growth under the conditions and specific doses tested. The compounds were initially dissolved in DMSO as 30 mM stocks and diluted accordingly to adjust to a concentration of 10 mg/ml or the compounds were dissolved in DMSO at a concentration of 10 mg/ml. For assessment of activity in the presence of human serum, S. aureus 1146 and S. aureus 1031 were inoculated into Mueller-Hinton Broth with 50% pooled inactivated human serum. In some cases, compounds were tested more than once in a particular assay. Where noted, the MIC value shown in Table 12 represents the geometric mean of the data from multiple runs.
(§2) It should be understood that the data in columns A-H represents MIC data in μg/ml and the notation “<=” means ‘less than or equal to’.

[2] = system: Staph aureus 1146; assay: MIC, microtiter broth dilution (CLSI M7-A7), Assay 1, Table 12 column B, no serum; details: for MIC, column B: Staph aureus 1146, Assay 1, no serum; for MIC: Staphylococcus aureus, 1146, Staph aureus 1146, Assay 1, no serum
Method: as §1, §2

[3] = system: Staph aureus 1146; assay: MIC in Mueller-Hinton Broth with 50% pooled inactivated human serum, Assay 1, Table 12; details: for MIC, column C: Staph aureus 1146, Assay 1, 50% human serum; for MIC: Staphylococcus aureus, 1146, Staph aureus 1146, Assay 1, 50% human serum, read-out: MIC, column C
Method: as §1, §2

[4] = system: Staph aureus 2811; assay: MIC, microtiter broth dilution (CLSI M7-A7), Assay 1, Table 12 column D, no serum; details: for MIC, column D: Staph aureus 2811, Assay 1, no serum; for MIC: Staphylococcus aureus, 2811, Staph aureus 2811, Assay 1, no serum
Method: as §1, §2

[5] = system: Staph aureus 2812; assay: MIC, microtiter broth dilution (CLSI M7-A7), Assay 1, Table 12 column E, no serum; details: for MIC, column E: Staph aureus 2812, Assay 1, no serum; for MIC: Staphylococcus aureus, 2812, Staph aureus 2812, Assay 1, no serum
Method: as §1, §2

Compound	MIC, column A [1]	MIC, column B [2]	MIC, column C [3]	MIC, column D [4]	MIC, column E [5]	MIC [1] [mg/L]	MIC [2] [mg/L]	MIC [3] [mg/L]	MIC [4] [mg/L]	MIC [5] [mg/L]
3-{[2-(3-chloro-6-methoxyquinolin-4-yl)ethyl]amino}-1-(cis-3-phenylcyclobutyl)pyrrolidine-3-carboxylic acid [Example 113]	0.125 mg/L	<=.0625 μg/ml	16 mg/L	0.125 mg/L	0.25 mg/L					
3-{[2-(3-chloro-8-methoxyquinolin-4-yl)ethyl]amino}-1-(trans-3-phenylcyclobutyl)pyrrolidine-3-carboxylic acid [Example 114]	1 mg/L	0.5 mg/L	>64 mg/L	0.5 mg/L	0.5 mg/L					
COc1ccc2ncc(F)c(C(O)CC[C@@H]3CCN(C4CC(c5ccccc5)C4)C[C@@H]3C(=O)O)c2c1 (mixture of isomers) [Example 14, (3R,4R)-4-[3-(3-fluoro-6-methoxyquinolin-4-yl)-3-hydroxypropyl]-1-(3-phenylcyclobutyl)piperidine-3-carboxylic acid]						≤ 0.0947	0.158	≤ 0.379	≤ 0.0947	≤ 0.0947
COc1ccc2nccc(C(O)CC[C@@H]3CCN(C4CC(O)(c5ccccc5)C4)C[C@@H]3C(=O)O)c2c1 (mixture of isomers) [Example 95, (3R,4R)-4-[3-hydroxy-3-(6-methoxyquinolin-4-yl)propyl]-1-(3-hydroxy-3-phenylcyclobutyl)piperidine-3-carboxcylic acid]	>64 mg/L	16 mg/L	>64 mg/L	>64 mg/L	>64 mg/L					
COc1ccc2nccc(C(O)CC[C@@H]3CCN(C4CC(O)(c5ccccc5)C4)C[C@@H]3C(=O)O)c2c1 (mixture of isomers) [Example 96, (3R,4R)-4-[3-hydroxy-3-(6-methoxyquinolin-4-yl)propyl]-1-(3-hydroxy-3-phenylcyclobutyl)piperidine-3-carboxcylic acid]	>64 mg/L	8 mg/L	>64 mg/L	>64 mg/L	>64 mg/L					
COc1ccc2nccc(C(O)CC[C@@H]3CCN(CC4CC(c5ccccc5)C4)C[C@@H]3C(=O)O)c2c1 (mixture of isomers) [Example 177, (3R,4R)-4-[3-hydroxy-3-(6-methoxyquinolin-4-yl)propyl]-1-[(3-phenylcyclobutyl)methyl]piperidine-3-carboxylic acid]						8	4	32	4	8
O=C(O)[C@H]1CN(C2CC(c3cc(F)ccc3F)C2)CC[C@H]1CCC(O)c1c(F)cnc2ccc(O)nc12 (mixture of isomers) [Example 206, (3R,4R)-1-[3-(2,5-difluorophenyl)cyclobutyl]-4-[3-(3-fluoro-6-hydroxy-1,5-naphthyridin-4-yl)-3-hydroxypropyl]piperidine-3-carboxylic acid]						4	2	16	2	4
COc1ccc2nccc(C(O)CCC3CCN(C[C@@H]4C[C@H]4c4ccccc4)CC3C(=O)O)c2c1 (relative stereo) [Example 25, 4-[3-hydroxy-3-(6-methoxyquinolin-4-yl)propyl]-1-{[(trans)-2-phenylcyclopropyl]methyl}piperidine-3-carboxylic acid]						2 (≈ 4.21 µM)	2 (≈ 4.21 µM)	4 (≈ 8.43 µM)	1 (≈ 2.11 µM)	1 (≈ 2.11 µM)
COc1ccc2nccc(C(O)CCC3CCN(C[C@@H]4C[C@H]4c4cc(F)ccc4F)CC3C(=O)O)c2c1 (relative stereo) [Example 26, 1-{[(trans)-2-(2,5-difluorophenyl)cyclopropyl]methyl}-4-[3-hydroxy-3-(6-methoxyquinolin-4-yl)propyl] piperidine-3-carboxylic acid]						1 (≈ 1.96 µM)	0.25 (≈ 0.49 µM)	4 (≈ 7.83 µM)	0.25 (≈ 0.49 µM)	0.25 (≈ 0.49 µM)
COc1ccc2ncc(F)c(C(O)CC[C@@H]3CCN(C4CC(c5ccccc5)C4)C[C@@H]3C(=O)O)c2c1 (single isomer, unassigned) [Example 15]		0.0156 mg/L (≈ 0.0317 µM)	0.25 mg/L (≈ 0.508 µM)		0.03125 mg/L (≈ 0.0634 µM)	0.0884 (≈ 0.179 µM)			0.0625 (≈ 0.127 µM)	
COc1ccc2ncc(F)c(C(O)CC[C@@H]3CCN(C4CC(c5ccccc5)C4)C[C@@H]3C(=O)O)c2c1 (single isomer, unassigned) [Example 16]	0.125 mg/L (≈ 0.254 µM)	<=.0884 μg/ml	1 mg/L (≈ 2.03 µM)	0.125 mg/L (≈ 0.254 µM)	0.125 mg/L (≈ 0.254 µM)					
COc1ccc2ncc(F)c(C(O)CC[C@@H]3CCN(C4CC(c5c(F)cccc5F)C4)C[C@@H]3C(=O)O)c2c1 (single isomer, unassigned) [Example 18]						≤ 0.0625	≤ 0.0625	0.25 (≈ 0.473 µM)	≤ 0.0625	≤ 0.0625
COc1ccc2ncc(F)c(C(O)CC[C@@H]3CCN(C4CC(c5c(F)cccc5F)C4)C[C@@H]3C(=O)O)c2c1 (single isomer, unassigned) [Example 19]	<=.0625 μg/ml	<=.0625 μg/ml	0.5 mg/L (≈ 0.946 µM)	<=.0625 μg/ml	<=.0625 μg/ml					
COc1ccc2nccc(C(O)CC[C@@H]3CCN(C4CC(c5c(F)cccc5F)C4)C[C@@H]3C(=O)O)c2c1 (single isomer, unassigned) [Example 27]						≤ 0.0625	≤ 0.125	0.353 (≈ 0.692 µM)	≤ 0.0625	≤ 0.0625
COc1ccc2ncc(F)c(C(O)CC[C@@H]3CCN(C4CC(c5cc(F)ccc5F)C4)C[C@@H]3C(=O)O)c2c1 (single isomer, unassigned) [Example 59]			<=.0625 μg/ml			≤ 0.0625	≤ 0.0625		≤ 0.0625	≤ 0.0625
COc1ccc2ncc(F)c(C(O)CC[C@@H]3CCN(C4CC(c5cc(F)ccc5F)C4)C[C@@H]3C(=O)O)c2c1 (single isomer, unassigned) [Example 60]	0.125 mg/L (≈ 0.236 µM)	<=.0625 μg/ml	4 mg/L (≈ 7.57 µM)	<=.0625 μg/ml	<=.0625 μg/ml					
COc1ccc2nccc(C(O)CC[C@@H]3CCN(C4CC(c5cccc(F)c5F)C4)C[C@@H]3C(=O)O)c2c1 (stereo partly drawn) [Example 58, (3R,4R)-1-[3-(2,3-difluorophenyl)cyclobutyl]-4-[3-hydroxy-3-(6-methoxyquinolin-4-yl)propyl] piperidine-3-carboxylic acid]			2 mg/L (≈ 3.92 µM)							
COc1ccc2nccc([C@@H](O)CC[C@@H]3CCN(C4CC(c5ccc(-c6ccccc6)cc5)C4)C[C@@H]3C(=O)O)c2c1 (stereo partly drawn) [Example 70, (3R,4R)-1-(3-biphenyl-4-ylcyclobutyl)-4-[(3S)-3-hydroxy-3-(6-methoxyquinolin-4-yl)propyl] piperidine-3-carboxylic acid]	>64 mg/L									
COc1ccc2ncc(F)c(C(O)CC[C@@H]3CCN(C4CC(Sc5cc(F)ccc5F)C4)C[C@@H]3C(=O)O)c2c1 (stereo partly drawn) [Example 229, (3R,4R)-1-[3-(2,5-Difluoro-phenylsulfanyl)-cyclobutyl]-4-[(S)-3-(3-fluoro-6-methoxy-quinolin-4-yl)-3-hydroxy-propyl]-piperidine-3-carboxylic acid]								32 (≈ 57.1 µM)		
